Results reported in patent US4868195A, “Novel enolamides, pharmaceutical compositions and methods of use thereof for activity as modulators of the arachidonic acid cascade” (Warner-Lambert Company, priority 1988, dated 1989).

Target: Human Leukocyte Lipoxygenase
Test: Human Leukocyte Lipoxygenase Assay (LDA-H)
Assay type: biochemical
Conditions: for IC50: acetone-pentane powder enzyme, 234 nm, 24° C., 5 min preincubation, read-out: Concentration (M) for 50.0 % Inhibition, IC (LDAH)
Protocol: Human Leukocyte Lipoxygenase Assay (LDA-H)
Whole blood is collected from normal volunteers and spun in a refrigerated centrifuge for four minutes at 1°-6° C. at 3800 g. The buffy coat is manually separated and washed twice with chilled 0.83% NH4 Cl and centrifuged at 1000 RPM for ten minutes at 4° C. The white cell is suspended in culture media-EMEM supplemented with 6% Agamma human serum, tricine buffer, and neomycin and recentrifuged at 1000 g to yield a pellet containing the leukocytes used for the preparation of the acetone pentane powder.
The acetone-pentane powder is prepared utilizing a modification of the procedure reported for human platelet lipoxygenase. See Siegel, et al, Arachidonate Metabolism via Lipoxygenase and 12-L-hydroperoxy-5 Eicosatetraenoic Acid Peroxidase Sensitive to Antiinflammatory Drugs, Proc. Natl. Acad. Sci., USA 77: 308, 1980 and D. P. Wallach and V. R. Brown, A Novel Preparation of Human Platlet Lipoxygenase, Biochem. Biophys. Acta. 663: 361, 1981. Buffy coat prepared above is resuspended in 5-7 volumes of cold 0.1M Tris buffer, pH 7.4 containing 0.154M NaCl. The suspension is centrifuged at 13,300 g for ten minutes at 4° C. The resultant pellet is retained, resuspended in five volumes of cold acetone, recentrifuged at 13,300 g and resuspended in five volumes of cold pentane. The pentane suspension is centrifuged for ten minutes at 13,300 g to give a pellet which is dried in the cold under vacuum with periodic pulverization. The dry powder is stable for several weeks when stored at -80° C.
Enzyme stock solution is prepared in the following manner. About 15 mg of the acetone-pentane powder is suspended in 4 ml of cold tris buffer (0.1M, pH 7.4), allowed to stand for five minutes, and homogenized thoroughly. The homogenate is sonicated three times for 15 seconds each time, diluted to 7 ml with cold tris buffer (0.1M, pH 7.4), and centrifuged at 4° C. for 60 minutes at 13,300 g. the supernatent is retained and diluted to a total of 10 ml with cold tris buffer (0.1M, pH 7.4) to give the stock enzyme solution. Additional dilutions of 2-50 fold are done as necessary to locate optimal enzyme reaction rate in the assay described below.
Substrate solution is prepared at 100 μM or 1.0 μM concentrations of arachidonic acid or linoleic acid in 0.1M tris buffer, pH 9.0 containing 20% ethanol.
The enzyme reaction is followed spectrophotometrically by the appearance of a conjugated diene product at 234 nm. The reaction is monitored at 24° C. using a Gilford Model 2600 spectrophotometer. […] The effects of inhibitors on the reaction are compared with control reactions run under indentical conditions. Routinely, each compounds of the present invention is incubated with the enzyme for five minutes prior to addition of substrate to initiate the reaction. Inhibition expressed as IC50 as molar concentration of the compound required to reduce reaction rate to 50% control.

Molecule	IC50 [M]	other results
COc1ccc(CCc2ccc(NC(=O)c3oc4ccc5ccccc5c4c3O)cc2)cc1OC [Example 103, Naptho[2,1-b]furan-2-carboxamide, 1-hydroxy-N-[4-[2-(3,4-dimethoxyphenyl)ethyl]phenyl]]	1.1e-06	–
COc1ccc(CCc2ccc(NC(=O)C(=O)c3[nH]c4cc(C)c(C)cc4c3O)cc2)cc1OC [Example 175, 1H-Indole-2-acetamide, N-[4-[2-(3,4-dimethoxyphenyl)ethyl]phenyl]-3-hydroxy-5,6-dimethyl-α-oxo]	–	% Inhibition (LDAH) (Concentration 2.50 E -5 M): 0.0%
N-[4-[3-(3,4-Dihydroxyphenyl)propyl]phenyl]-3,4-dihydro-2H-1-benzothiopyran-3-carboxamide, 1,1-dioxide [Example 22]	1.3e-05	–
O=C(Nc1ccc(CCc2ccc(Cl)cc2)cc1)C(=O)C1=C(O)c2ccccc2SC1 [Example 4, N-[4-[2-(4-chlorophenyl)ethyl]phenyl]-4-hydroxy-α-oxo-2H-1-benzothiopyran-3-acetamide]	4.5e-05	–
COc1ccc(CCc2ccc(NC(=O)C(=O)C3Oc4cc5ccccc5cc4C3=O)cc2)cc1OC (stereo not drawn) [Example 117, Naptho[2,3-b]furan-2-acetamide, N-[4-[2-(3,4-dimethoxyphenyl)ethyl]phenyl]-2,3-dihydro-α,3-dioxo]	–	% Inhibition (LDAH) (Concentration 2.50 E -5 M): 0.0%
O=C(Nc1ccc(CCCCc2ccc(O)c(O)c2)cc1)C1CS(=O)(=O)c2ccccc2C1=O (stereo not shown) [Example 23, N-[4-[4-(3,4-Dihydroxyphenyl)butyl]phenyl]-3,4-dihydro-4-oxo-2H-1-benzothiopyran-3-carboxamide, 1,1-dioxide]	–	% Inhibition (LDAH) (Concentration 2.50 E -5 M): 0.0%
Nc1ccc(CCc2ccc(NC(=O)C3CS(=O)(=O)c4ccccc4C3=O)cc2)cc1 (stereo not shown) [Example 52, N-[4-[2-(4-Aminophenyl)ethyl]phenyl]-3,4-dihydro-4-oxo-2H-1-benzothiopyran-3-carboxamide, 1,1-dioxide]	6e-05	–
O=C(Nc1ccc(Cc2ccc(O)c(O)c2)cc1)C1CS(=O)(=O)c2ccccc2C1=O (stereo not shown) [Example 14, N-[4-[(3,4-Dihydroxyphenyl)methyl]phenyl]-3,4-dihydro-4-oxo-2H-1-benzothiopyran-3-carboxamide, 1,1-dioxide]	–	% Inhibition (LDAH) (Concentration 2.50 E -5 M): 0.0%
CCCCCCCCCCc1ccc(NC(=O)C(=O)C2=C(O)c3ccccc3S(=O)(=O)C2)cc1 [Example 9, N-(4-Decylphenyl)-4-hydroxy-α-oxo-2H-1-benzothiopyran-3-acetamide, 1,1-dioxide]	7.7e-05	–
COc1ccc(CCc2ccc(NC(=O)C(=O)C3=C(O)c4ccccc4S(=O)(=O)C3)cc2)cc1OC [Example 3, N-[4-[2-(3,4-Dimethoxyphenyl)ethyl)phenyl]-4-hydroxy-α-oxo-2H-1-benzothiopyran-3-acetamide, 1,1-dioxide]	–	% Inhibition (LDAH) (Concentration 1.00 E -5 M): 0.0%; % Inhibition (LDAH) (Concentration 2.50 E -5 M): 0.0%
CN(C)c1ccc(CCc2ccc(NC(=O)C3CS(=O)(=O)c4ccccc4C3=O)cc2)cc1 (stereo not shown) [Example 55]	6.8e-05	–
O=C(Nc1ccc(CCc2cc(O)c(O)c(O)c2)cc1)C1=C(O)c2ccccc2S(=O)(=O)C1 [Example 36]	–	% Inhibition (LDAH) (Concentration 2.50 E -5 M): 0.0%
COc1ccc(CCc2ccc(NC(=O)C(=O)c3oc4cc(OC)c(OC)cc4c3O)cc2)cc1OC [Example 115, 2-Benzofuranacetamide, N-[4-[2-(3,4-dimethoxyphenyl)ethyl]phenyl]-3-hydroxy-5,6-dimethoxy-α-oxo]	–	% Inhibition (LDAH) (Concentration 8.00 E -5 M): 0.0%
COc1ccc(CCc2ccc(NC(=O)C3CS(=O)(=O)c4ccccc4C3=O)cc2)cc1NC(C)=O (stereo not shown) [Example 50, N-[4-[2-(3-Acetylamino-4-methoxy)ethyl]phenyl]-3,4-dihydro-4-oxo-2H-1-benzothiopyran-3-carboxamide, 1,1-dioxide]	–	% Inhibition (LDAH) (Concentration 8.00 E -5 M): 0.0%
CCCCCCCCCCc1ccc(NC(=O)C(=O)c2oc3cc(OC)c(OC)cc3c2O)cc1 [Example 119, 2-Benzofuranacetamide, N-[4-decylphenyl]-3-hydroxy-5,6-dimethoxy-α-oxo]	–	% Inhibition (LDAH) (Concentration 7.90 E -9 M): 50.0%
O=C(O)c1ccc(CCc2ccc(NC(=O)C3CS(=O)(=O)c4ccccc4C3=O)cc2)cc1 (stereo not shown) [Example 12, 4-[2-[4-[[(3,4-Dihydro-4-oxo-2H-1-benzothiopyran-3-yl)carbonyl]amino]phenyl]ethyl]benzoic acid, 1,1-dioxide]	3.4e-06	–

Second part, led by results:

IC50 [M]	Molecule	other results
2.5e-05	CCCCCCCCCCc1ccc(NC(=O)C(=O)c2sc3ccc(Cl)cc3c2O)cc1 [Example 135, Benzo[b]thiophene-2-acetamide, 5-chloro-N-(4-decylphenyl)-3-hydroxy-α-oxo]	–
2.5e-05	COc1cccc2c(O)c(C(=O)C(=O)Nc3ccc(CCc4ccc(O)c(O)c4)cc3)oc12 [Example 123, 2-Benzofuranacetamide, N-[4-[2-(3,4-dihydroxyphenyl)ethyl]phenyl]-3-hydroxy-7-methoxy-α-oxo]	–
2.7e-05	O=C(Nc1ccc(CCc2ccc(O)c(O)c2)cc1)C1Oc2c(n(-c3ccccc3)c3ccccc23)C1=O (stereo not shown) [Example 166, 2H-Furo[3,2-b]indole-2-carboxamide, N-[4-[2-(3,4-dihydroxyphenyl)ethyl]phenyl]-3,4-dihydro-3-oxo-4-phenyl]	–
8e-05	Cc1cc2[nH]c(C(=O)C(=O)Nc3ccc(CCc4ccc(O)c(O)c4)cc3)c(O)c2cc1C [Example 177, 1H-Indole-2-acetamide, N-[4-[2-(3,4-dihydroxyphenyl)ethyl]phenyl]-3-hydroxy-5,6-dimethyl-α-oxo]	–
5.7e-07	COc1ccc(CCc2ccc(NC(=O)C(=O)C3=C(O)c4ccccc4OC3)cc2)cc1OC [Example 152]	–
